inhibition, IC50 and Ki data for three compounds are collected here from PMC5789148, “Embelin Restores Carbapenem Efficacy against NDM-1-Positive Pathogens” (Frontiers in Microbiology, 2018).

Where only a bound is given, the exact number is not on record here.

What all share (type): biochemical
The target of assay [1] is T1, NDM-1 (New Delhi metallo-β-lactamase-1) (Klebsiella pneumoniae, UniProt C7C422).
T1 construct: gene blaNDM-1
Description: single-concentration ([…]) meropenem hydrolysis screen with purified NDM-1. The following applies: read-out: % inhibition at 20 μM.

The next assay has as its target IMP-1 (Serratia marcescens, UniProt P52699). In words: meropenem hydrolysis inhibition assay.
In assay [2] the target is T1, NDM-1 (New Delhi metallo-β-lactamase-1). In words: meropenem hydrolysis inhibition with purified NDM-1, […] nm (IC50 […]).
A further assay has as its target VIM-1 (Pseudomonas aeruginosa, UniProt A0A0F7KYQ8). Description: meropenem hydrolysis inhibition assay.

T1 sequence (C7C422 29-270 limits assumed): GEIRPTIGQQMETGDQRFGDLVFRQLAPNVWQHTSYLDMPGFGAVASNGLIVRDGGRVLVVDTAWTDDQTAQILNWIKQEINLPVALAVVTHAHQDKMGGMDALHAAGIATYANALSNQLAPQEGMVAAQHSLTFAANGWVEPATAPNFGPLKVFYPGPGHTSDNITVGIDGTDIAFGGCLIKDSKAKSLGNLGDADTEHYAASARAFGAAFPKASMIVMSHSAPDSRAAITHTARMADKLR
IMP-1, sequence (P52699 19-246 limits assumed): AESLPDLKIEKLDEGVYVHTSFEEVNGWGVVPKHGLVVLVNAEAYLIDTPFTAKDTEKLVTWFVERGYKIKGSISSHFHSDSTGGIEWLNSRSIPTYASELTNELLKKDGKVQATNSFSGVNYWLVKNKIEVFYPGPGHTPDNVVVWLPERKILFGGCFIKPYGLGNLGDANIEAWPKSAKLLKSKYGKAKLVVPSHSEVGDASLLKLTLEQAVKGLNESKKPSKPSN

Turning to `COc1cc(/C=C/C(=O)CC(=O)/C=C/c2ccc(O)c(OC)c2)ccc1O` [curcumine], the inhibition (usually the relative decrease from the control value, in per cent) at 20 µM in assay [1] is over 20%.

`CCCCCCCCCCCC1=C(O)C(=O)C=C(O)C1=O` [embelin]: the half-inhibitory concentration (IC50) (commonly the concentration at which inhibition is half-maximal) at IMP-1 was about 100 µM; against VIM-1, about 200 µM. Further, the Ki (in general, a dissociation constant, usually derived from enzyme kinetics or from competition with a known ligand) in assay [2] amounted to 0.19 ± 0.02 µM.

For `Oc1ccc(/C=C/c2cc(O)cc(O)c2)cc1` [resveratrol], the inhibition at 20 µM in assay [1] was over 20%.
